From patent US10857185B2, “Compositions and methods for reprogramming non-neuronal cells into neuron-like cells” (Beihao Stem Cell and Regenerative Medicine Research …, priority 2015, dated 2020)
“Also recorded” adds a separate entry of the source.

Assays:
mouse fibroblasts = assay: Transgene-free chemical induction of mouse fibroblasts into neuron-like cells (immunostaining counts); assay type: cell-based
Method: Secondary screening was performed to identify additional small molecules that facilitate neuronal reprogramming and maturation (shown schematically in FIG. 2A). In this screening, the effect of the additional small molecules was evaluated by observing neurite outgrowth. Desirable additional small molecules could induce the neurons with an improved neurite outgrowth as signs of enhanced reprogramming and maturation, ideally with highly complex morphologies. Improved neurite morphologies were evaluated in terms of enhanced neurite branches and neurite length. Further, characterization (e.g. TUJ1 immunostaining) was performed to confirm the observation. Fibroblasts were seeded into 12-well plates and each additional small molecule was added well by well into the culture medium containing the basic small-molecule cocktail (SM-cocktail+1 Screening), while SM-cocktail+DMSO was used as a negative control. […] TUJ1-positive cells with circular cell bodies and neurite outgrowth that is at least three-fold longer than the cell body were quantified. […] Cells were washed with PBS twice and then fixed with 4% paraformaldehyde for 20 min at room temperature. Afterward, the cells were washed with PBS twice and then blocked and permeabilized with 0.25% PBST (PBS plus 0.25% Triton X-100) and 3% donkey serum (DS) for 1 hour at 37° C. A PAP pen was used to outline the fields for staining. Diluted primary antibodies were added to the outlined fields, and the samples were incubated at 4° C. overnight. Next, the cells were washed three times with PBS and incubated in PBS plus 3% DS with diluted secondary antibodies for 1 hour at room temperature. The nuclei of the cells were stained with DAPI (Roche Molecular Biochemicals) if needed. […] The following secondary antibodies were used in this study: FITC and TRITC-conjugated secondary antibodies (Jackson ImmunoResearch) and Alexa Fluor 647-conjugated secondary antibodies (Life Technologies).

fibroblasts = assay: Gene expression (RT-qPCR) after removing each small molecule from the cocktail; assay type: cell-based, mouse
Method: Total RNA was extracted using the Qiagen RNeasy Plus mini kit and was reverse transcribed into cDNA with TransScript One-step gDNA Removal and cDNA Synthesis SuperMix (TransGen Biotech). Real-time PCR was performed using a 7300 Real-Time PCR system (Applied Biosystems) with Power SYBR Green PCR Master Mix (2×).
Gene expression was analyzed using the ΔΔCt method. All the results were normalized to β-actin expression, and the values of uninduced fibroblasts were set to 1. Two replicates were used to determine the error bars.
Next, the roles of the small molecules in regulating these endogenous cell-fate-determining factors were determined.

CiNs = assay: Whole-cell patch-clamp recordings of CiNs; assay type: cell-based, mouse; details: CiNs after re-plating; data not shown
Method: Primary cultures of neurons were prepared from postnatal day 1 wild-type C57 mice. Mice were decapitated, and their brains were removed in pre-cooled physiological saline. The hippocampus was dissected in pre-cooled HBSS (9.5 g/L Hanks' balanced salts, 4.2 mM NaHCO3, 10 mM HEPES, 12 mM MgSO4, 7 g/L glucose, 0.3 g/L bull serum albumin, and 0.5% penicillin/streptomycin, with the pH adjusted to 7.4 with NaOH). Tissues were digested with 5 ml 0.2% trypsin (Gibco, dissolved in digestion solution) for 2-3 min, and the digestion reaction was stopped with 1 mg/ml trypsin inhibitor (Sigma, dissolved in HBSS). The digestion solution contained (in mM) 4.2 NaHCO3, 25 HEPES, 137 NaCl, 5 KCl, and 7 Na2HPO4, and the pH was adjusted to 7.4 with NaOH. […]
For whole-cell patch-clamp recordings, the ACSF (artificial cerebrospinal fluid) extracellular solution contained (in mM) 141 NaCl, 2.5 KCl, 1.3 MgCl2, 2.4 CaCl2, 1.25 NaH2PO4 10 glucose and 10 HEPES (pH adjusted to 7.4 with NaOH), and the internal pipette solution contained (in mM) 140 potassium gluconate, 1 CaCl2, 10 EGTA, 2 MgCl2, 10 HEPES, and 5 Na2ATP (pH adjusted to 7.3 with KOH). […] Tetrodotoxin (TTX; 10 μM) dissolved in extracellular solution was applied with an ALA-VM4 valve manifold (Scientific Instruments), and washout from the iNs was assessed to determine whether the inward fast inactivating current was a sodium current. […]

[1] = I-BET151 added to FICS cocktail (FICS+1 screening)

With `NC(=O)c1ccc(-c2nc(-c3ccc4c(c3)OCO4)c(-c3ccccn3)[nH]2)cc1` [SB431542, 4-[4-(1,3-benzodioxol-5-yl)-5-(2-pyridinyl)-1H-imidazol-2-yl]benzamide] the “survival and neurite outgrowth of the induced neurons” value (mouse fibroblasts; in FICSB cocktail) was “enhanced” and the “need of the chemical for generating neurons” value (mouse fibroblasts; withdrawing individual chemical from FICSB cocktail) was “dispensable for generating neurons”.

With `O=C(NC1CC1)c1cc(-c2cccs2)on1` [ISX9, N-cyclopropyl-5-(2-thienyl)-3-isoxazolecarboxamide] the “role in activation of master neural / neuron-specific genes” value (fibroblasts; 48 h) was “necessary for activation of multiple neuron-specific genes; also recorded: essential to induce the master neural genes”.

For `N#Cc1cc2c(cc1[N+](=O)[O-])=NC(=O)C(=O)N=2` [CNQX, 6-cyano-7-nitroquinoxaline-2,3-dione], the “effect of receptor antagonists on EPSCs of CiNs” value (CiNs) was “blocked”.

In the case of `NC(CCCP(=O)(O)O)C(=O)O` (stereo not shown) [AP5, 2-amino-5-phosphonovaleric acid], the “effect of receptor antagonists on EPSCs of CiNs” value (CiNs) is reported as “blocked”.

`COc1cc2c(cc1-c1c(C)noc1C)ncc1[nH]c(=O)n([C@H](C)c3ccccn3)c12` [I-BET151, 7-(3,5-dimethylisoxazol-4-yl)-8-methoxy-1-((R)-1-(pyridin-2-yl)ethyl)-1H-imidazo[4,5-c]quinolin-2(3H)-one] was tested, and the “role in suppression of the endogenous fibroblast-fate-determining program” value (fibroblasts) was “core small molecule to suppress the endogenous fibroblast-fate-determining program”, the TUJ1-positive cells yield (mouse fibroblasts; [1]) was 90% and the “reprogramming rate and neurite outgrowth of the induced neurons” value (mouse fibroblasts; [1]) was “dramatically enhanced”. The “toxicity to cells being induced” value (mouse fibroblasts; enhancing reprogramming with I-BET151) was “some toxicity”.

In the case of `C[C@@H](N)[C@H]1CC[C@H](C(=O)Nc2ccncc2)CC1.Cl.Cl` [Y2632, (+)-(R)-trans-4-(1-aminoethyl)-N-(4-pyridyl)cyclohexanecarboxamide dihydrochloride], the “survival rate and reprogramming” value (mouse fibroblasts; treatment from Day 0 to about day 4 together with I-BET151-containing cocktail) is reported as “enhanced the survival rate and reprogramming”.
